Each compound was assayed against T1, human gastrin (CCK2) receptors (Homo sapiens, UniProt P32239) (assay: Displacement of [125I]-BH-CCK-8S from human CCK2 receptors cloned into NIH3T3 cells (membranes)). Settings: hCCK2 receptor, NIH3T3 clone 7 membranes, [125I]-BH-CCK-8S 200 pM, 150 min at 21° C.; ± s.e. mean; read-out: CCK2 (pKI) (converted).
T1 construct: amplified by PCR (polymerase chain reaction) from the start codon to the stop codon; expressed in transfected cells
T1 sequence (P32239 1-447): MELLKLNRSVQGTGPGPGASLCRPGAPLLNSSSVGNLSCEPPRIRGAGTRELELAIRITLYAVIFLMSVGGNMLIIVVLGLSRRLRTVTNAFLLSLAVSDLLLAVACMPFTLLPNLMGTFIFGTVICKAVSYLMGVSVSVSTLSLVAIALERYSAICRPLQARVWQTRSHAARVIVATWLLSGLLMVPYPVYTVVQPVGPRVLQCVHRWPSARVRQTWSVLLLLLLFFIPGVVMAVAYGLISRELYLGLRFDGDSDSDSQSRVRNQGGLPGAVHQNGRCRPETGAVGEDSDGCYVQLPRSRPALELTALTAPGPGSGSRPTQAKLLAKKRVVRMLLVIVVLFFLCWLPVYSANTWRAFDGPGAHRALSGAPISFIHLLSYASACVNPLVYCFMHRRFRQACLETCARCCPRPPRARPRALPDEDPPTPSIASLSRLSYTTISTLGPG
Type: binding
Method: A number of compounds were tested at human gastrin (CCK2) receptors which have been cloned into an NIH3T3 cell line as follows:
Stable clones expressing hCCK2R were screened for their ability to specifically bind [^125I]-BH-CCK-8S in tissue concentration curve studies (0.3×10^4-1×10^6 cells per tube) using the assay conditions described below. […] In addition there was a direct linear correlation between the amount of specific bound label and the cell concentration up to and including 2.5×10^5 cells per ml. Based on the above, this clone was chosen for expansion and fall binding characterisation.
Cultured clone 7 cells were stored as frozen pellets at −70° C. until required. Cell pellets were thawed in CCK2 assay buffer ((mM): 10 Hepes; 130 NaCl; 5 MgCl2; 4.7 KCl; 1 EGTA (pH7.2 at 21° C.) with 0.125 g Bacitracin added to each litre), and homogenised using a Polytron (4×1 s). The resulting membrane preparation was centrifuged at 39,800 g for 15 min at 4° C. Each cell pellet was re-suspended in fresh buffer and re-centriflged as above. The final pellet was re-suspended by homogenisation (Teflon-in-glass), to the appropriate membrane concentration.
For saturation and competition studies, the cell membranes prepared as in step d (3×10^4 cells per 400 μl) were incubated for 150 min at 21° C. in a final volume of 0.5 ml with CCK2 assay buffer containing [^125I]-BH-CCK-8S (50 μl; 200 pM). Total and non-specific binding of [^125I]-BH-CCK-8S were defined, respectively using 50 μl of buffer and 50 μl of 10 μM YM022. The assays were terminated by rapid filtration through pre-soaked Whatman GF/B filters which were washed (3×3 ml) with ice-cold 50 mM Tris HCl (pH7.4 @ 4° C.). Filters were transferred to plastic gamma counter vials and bound radioactivity determined by counting (1 min) in a Clini-gamma counter.
The binding of [^125I]-BH-CCK-8S to the hCCK2 receptor isoform was saturable. […] Saturation data were analysed using the curve-fitting programmes, Radlig and Ligand.
A number of compounds of the invention as well as reference compounds were tested for their ability to displace [^125I]-BH-CCK-8S from the receptors prepared as above. Briefly, dilution and addition of test compounds, radioligand and cell membranes were performed using a Beckman Biomek 2000. The ability of compounds to inhibit the specific binding of to hCCK2 receptors was determined in triplicate over a range of concentrations at half-log intervals. Total and non-specific binding was determined for each compound. Each compound was tested in a minimum of three experiments. Competition data were fitted to the Hill equation using Graph-pad Prism software to obtain estimates of the IC50 (mid-point location parameter) and nH (mid-point slope parameter). Dissociation constants (KI) were determined using the Cheng & Prusoff equation (1973) to correct for the receptor occupancy by the radioligand. All compounds were dissolved in DMF to give a stock concentration of either 1 or 10 mM and subsequent dilutions were made in assay buffer.

Row | Ki [nM] | Structure (SMILES)
1 | 12.6 | O=C(CN1NC(C2CCCCC2)c2ccccc2N(CC(=O)C2CCCC2)C1=O)Nc1cccc(C(=O)O)c1 (single isomer, unassigned; (+)) [Example 11, (+)-3-{2-[5-Cyclohexyl-1-(2-cyclopentyl-2-oxo-ethyl)-2-oxo-1,2,4,5-tetrahydro-3H-1,3,4-benzotriazepin-3-yl]-acetylamino}-benzoic acid]
2 | 1.48 | O=C(CN1NC(C2CCCCC2)c2ccccc2N(CC(=O)C2CCCC2)C1=O)Nc1cccc(C(=O)O)c1 (racemic) [Example 4, (+/−)-3-{2-[5-Cyclohexyl-1-(2-cyclopentyl-2-oxo-ethyl)-2-oxo-1,2,4,5-tetrahydro-3H-1,3,4-benzotriazepin-3-yl]-acetylamino}-benzoic acid]
3 | 2.63 | CNc1cccc(NC(=O)CN2NC(C3CCCCC3)c3ccccc3N(CC(=O)C3CCCC3)C2=O)c1 (racemic) [Example 7, (+/−)-2-[5-Cyclohexyl-1-(2-cyclopentyl-2-oxo-ethyl)-2-oxo-1,2,4,5-tetrahydro-3H-1,3,4-benzotriazepin-3-yl]-N-(3-methylamino-phenyl)-acetamide]
4 | 0.0794 | O=C(CN1NC(C2CCCCC2)c2ccccc2N(CC(=O)C2CCCC2)C1=O)Nc1cccc(-c2nc(=O)o[nH]2)c1 (racemic) [Example 16, (+/−)-2-[5-Cyclohexyl-1-(2-cyclopentyl-2-oxo-ethyl)-2-oxo-1,2,4,5-tetrahydro-3H-1,3,4-benzotriazepin-3-yl]-N-[3-(5-oxo-2,5-dihydro-[1,2,4]oxadiazol-3-yl)-phenyl]-acetamide]
5 | 0.501 | O=C(CN1NC(C2CCCCC2)c2ccccc2N(CC(=O)C2CCCC2)C1=O)Nc1cccc(-c2nnn[nH]2)c1 (racemic) [Example 15, (+/−)2-[5-Cyclohexyl-1-(2-cyclopentyl-2-oxo-ethyl)-2-oxo-1,2,4,5-tetrahydro-3H-1,3,4-benzotriazepin-3-yl]-N-[3-(2H-tetrazol-5-yl)-phenyl]-acetamide]
6 | 79.4 | O=C(O)Cc1cccc(NC(=O)CN2NC(C3CCCCC3)c3ccccc3N(CC(=O)C3CCCC3)C2=O)c1 (racemic) [Example 5, (+/−)-(3-{2-[5-Cyclohexyl-1-(2-cyclopentyl-2-oxo-ethyl)-2-oxo-1,2,4,5-tetrahydro-3H-1,3,4-benzotriazepin-3-yl]-acetylamino}-phenyl)-acetic acid]
7 | 2.24 | O=C(CN1NC(C2CCCCC2)c2ccccc2N(CC(=O)C2CCCCC2)C1=O)Nc1cccc(C(=O)O)c1 (racemic) [Example 9, (+/−)-3-{2-[5-Cyclohexyl-1-(2-cyclohexyl-2-oxo-ethyl)-2-oxo-1,2,4,5-tetrahydro-3H-1,3,4-benzotriazepin-3-yl]-acetylamino}-benzoic acid]
8 | 0.363 | O=C(O)Cc1cccc(NC(=O)CN2NC(C3CCCCC3)c3ccccc3N(CC(=O)C3CCCCC3)C2=O)c1 (racemic) [Example 10, (+/−)-(3-{2-[5-Cyclohexyl-1-(2-cyclohexyl-2-oxo-ethyl)-2-oxo-1,2,4,5-tetrahydro-3H-1,3,4-benzotriazepin-3-yl]-acetylamino}-phenyl)-acetic acid]
9 | 1.58 | O=C(CN1NC(C2CCCCC2)c2ccccc2N(CC(=O)C2CCCC2)C1=O)Nc1cccc(C(=O)O)c1 (single isomer, unassigned; (-)) [Example 12, (−)-3-{2-[5-Cyclohexyl-1-(2-cyclopentyl-2-oxo-ethyl)-2-oxo-1,2,4,5-tetrahydro-3H-1,3,4-benzotriazepin-3-yl]-acetylamino}-benzoic acid]

Second part, the compound before the results:

Row | Structure (SMILES) | Ki [nM]
10 | O=C(O)Cc1cccc(NC(=O)CN2NC(C3CCCCC3)c3ccccc3N(CC(=O)C3CCCCC3)C2=O)c1 (single isomer, unassigned; (-)) [Example 14, (−)-(3-{2-[5-Cyclohexyl-1-(2-cyclohexyl-2-oxo-ethyl)-2-oxo-1,2,4,5-tetrahydro-3H-1,3,4-benzotriazepin-3-yl]-acetylamino}-phenyl)-acetic acid] | 0.1
11 | O=C(O)CCc1cccc(NC(=O)CN2NC(C3CCCCC3)c3ccccc3N(CC(=O)C3CCCC3)C2=O)c1 (racemic) [Example 6, (+/−)-3-(3-(2-[5-Cyclohexyl-1-(2-cyclopenlyl-2-oxo-ethyl)-2-oxo-1,2,4,5tetrahydro-3H-1,3,4-benzotriazepin-3-yl]-acetylamino}-phenyl)-propionic acid] | 0.759
12 | CNc1cccc(NC(=O)CN2NC(C3CCCCC3)c3ccccc3N(CC(=O)C(C)(C)C)C2=O)c1 (racemic) [Example 2, (+/−)-2-[5-Cyclohexyl-1-(3,3-dimethyl-2-oxo-butyl)-2-oxo-1,2,4,5-tetrahydro-3H-1,3,4-benzotriazepin-3-yl]-N-(3-methylamino-phenyl)-acetamide] | 16.2
13 | Cc1cccc(NC(=O)CN2NC(C3CCCCC3)c3ccccc3N(CC(=O)C(C)(C)C)C2=O)c1 (racemic) [Example 3, (+/−)-2-[5-Cyclohexyl-1-(3,3-dimethyl-2-oxo-butyl)-2-oxo-1,2,4,5-tetrahydro-3H-3H-1,3,4-benzotriazepin-3-yl]-N-m-tolyl-acetamide] | 44.7
14 | CC(C)(C)C(=O)CN1C(=O)N(CC(=O)Nc2cccc(C(=O)O)c2)NC(C2CCCCC2)c2ccccc21 (racemic) [Example 1, (+/−)-3-{2-[5-Cyclohexyl-1-(3,3-dimethyl-2-oxo-butyl)-2-oxo-1,2,4,5-tetrahydro-3H-1,3,4-benzotriazepin-3-yl]-acetylamino)-benzoic acid] | 17.8
15 | CC1(C(=O)CN2C(=O)N(CC(=O)Nc3cccc(C(=O)O)c3)NC(C3CCCCC3)c3ccccc32)CCCCC1 (racemic) [Example 8, (+/−)-3-(2-{5-Cyclohexyl-1-[2-(1-methyl-cyclohexyl)-2-oxo-ethyl]-2-oxo-1,2,4,5-tetrahydro-3H-1,3,4-benzotriazepin-3-yl}-acetylamino)-benizoic acid] | 7.76
16 | O=C(O)Cc1cccc(NC(=O)CN2NC(C3CCCCC3)c3ccccc3N(CC(=O)C3CCCCC3)C2=O)c1 (single isomer, unassigned; (+)) [Example 13, (+)-(3-{2-[5-Cyclohexyl-1-(2-cyclohexyl-2-oxo-ethyl)-2-oxo-1,2,4,5-tetrahydro-3H-1,3,4-benzotriazepin-3-yl]-acetylamino}-phenyl)-acetic acid] | 3.98
